Data: EP0432983A2 (priority 1989, dated 1991)
Converted amounts (≈) assume the structure as drawn.

Legend:
HSV-1 [1] = test: Inhibition of HSV-1 replication (anti-viral effect), PFU determination; assay type: cell-based; conditions: Human alphaherpesvirus 1; HSV-1 replication in CV-1 cells, 10 PFU per cell, 24 hours after infection
Description: 16mm dia. wells are seeded each with 2 x 10⁵ CV-1 cells in 1ml aliquots of MEM10C. After three days, the cells are infected with HSV-1 at 10 PFU (Plaque Forming Units) per cell. The inoculum is replaced, after adsorption for 1.5 hours, in pairs of wells with 0. 5 ml aliquots of MEM5C containing the test concentrations of each of AH-1 and AH-2. Four hours from infection, the cells from two wells are scraped into the medium and frozen to -80°C. [The average of PFU/ml of these samples forms the base for calculating net virus production]. The remaining samples are collected in pairs of wells 24 hours after infection and are also frozen to -80°C. For determination of PFU/ml, each sample is diluted to 10⁻⁸.

CV-1 cells = test: Inhibition of growth of CV-1 cells (cytotoxic effect); assay type: cell-based, monkey; conditions: for inhibition of growth: CV-1 cells, 0.1, 0.5, 1, 5, 10 and 50 µg/ml; for IC50: Primates, 96 h, CV-1 cell growth, counted four days after seeding
Description: CV-1 cells are seeded into 16 mm dia. wells at 10⁴ cells per well in 1ml aliquots of MEM10C. The following day, the medium is replaced with 0.5 ml aliquots of MEM10C containing the test concentrations of compounds AH-1 and AH-2, i. e. 0, 0.1, 0.5, 1, 5, 10 and 50 µg/ml. Determinations are all carried out in duplicate. Four days after seeding, the cells are trypsinised and counted. Percentage inhibition (%I) relative to the wells without test compound (i.e. the controls) is calculated and the IC₅₀ determined.

HSV-1 [2] = test: Viral plaque reduction in HSV-1 infected CV-1 cells (Table 3); assay type: cell-based; set-up: key: (-) indicates no reduction in viral plaque production; (+) indicates a 50% reduction in viral plaque production; (++) indicates an 80% reduction in viral plaque production
Description: (§1) This test is performed according to standard procedures for determination of cytotoxicity of a compound againt virus infected cells. In the present case, CV-1 (monkey kidney fibroblast cells) are infected with HSV-1 and the compounds of the invention tested against these at varying concentrations.
(§2) The numbers show the toxicity throughout the CV-1 cells sheet. (-) indicates no reduction in viral plaque production (+) indicates a 50% reduction in viral plaque production (++) indicates an 80% reduction in viral plaque production.

[3] = test system: CV-1 (monkey kidney fibroblast cells); test: Toxicity throughout the CV-1 cell sheet (Table 3); assay type: cell-based
Description: as §1, §2

[4] = test system: L-1210 cells (mouse lymphoma); test: Activity against L-1210 cells; assay type: cell-based
[5] = test system: VSV (Vesicular Stomatitis Virus); assay type: cell-based

SMILES	IC50 (HSV-1 [1])	inhibition of growth (CV-1 cells)	IC50 (CV-1 cells)	reduction in viral plaque production (HSV-1 [2]; 5µl of 500µg/ml in MeOH/Acet)	reduction in viral plaque production (HSV-1 [2]; 10µl of 500µg/ml in MeOH/Acet)	reduction in viral plaque production (HSV-1 [2]; 20µl of 500µg/ml in MeOH/Acet)	reduction in viral plaque production (HSV-1 [2]; 40µl of 500µg/ml in MeOH/Acet)	toxicity throughout the CV-1 cells sheet ([3]; 5µl of 500µg/ml in MeOH/Acet)	toxicity throughout the CV-1 cells sheet ([3]; 10µl of 500µg/ml in MeOH/Acet)	toxicity throughout the CV-1 cells sheet ([3]; 20µl of 500µg/ml in MeOH/Acet)	toxicity throughout the CV-1 cells sheet ([3]; 40µl of 500µg/ml in MeOH/Acet)	activity against L-1210 cells [4]	activity against VSV [5]
Cc1c2c(c3c4c1C(C1OC1(C)C)CC(C)C4CCC3C)OCO2 (centres unmarked) [AH-1, Helioporin A]	4 µg/mL (≈ 12.2 µM)	no inhibition of growth	> 50 µg/mL	-	-	+ ((+) indicates a 50% reduction in viral plaque production)	++ ((++) indicates an 80% reduction in viral plaque production)	0	0	0	0	no activity	no activity
Cc1cc2c(c3c1OCO3)C(C)CCC2C(C)CC(=O)CC(C)C (centres unmarked) [AH-2, Helioporin B]	1.6 µg/mL (≈ 4.84 µM)	no inhibition of growth	> 50 µg/mL	-	-	+ ((+) indicates a 50% reduction in viral plaque production)	++ ((++) indicates an 80% reduction in viral plaque production)	0	0	0	0	no activity	no activity
